Patent US9045650B2, “Polymer with salt groups and antifouling coating composition comprising said polymer” (AKZO NOBEL COATINGS INTERNATIONAL B.V., priority 2008, dated 2015)

Assay: Salt formation of monomeric salts analysed by spectroscopic methods (IR, 1H NMR) and observation on mixing
Type: physicochemical
Conditions: solid sample, ATR
Method: The monomeric salt was analysed using infra-red (IR) spectroscopy (solid sample analysis using Avatar 360 infra-red spectrometer with Golden Gate diamond ATR attachment).
In an effort to further illustrate the relationship between acid/base pKa and the stability of the resulting polymer, a series of monomeric salts was prepared and analysed by spectroscopic methods.
Each of the monomeric salts were prepared by mixing the constituent acid/base starting materials in methanol at a concentration of 1.968 M. Following the addition of the acid/base starting materials, the mixture was stirred at room temperature for 24 h. The monomeric salt was then isolated by evaporation of the solvent.
^1H NMR spectroscopy was carried out on a CDCl3 solution of the monomeric salt (0.0827 M). Peaks associated with resonances for both CH2 groups present in the DMAEMA moiety were seen to shift downfield in the spectrum of this sample when compared to the reference spectrum of the DMAEMA starting material (CH2—CH2—NMe2 δ 4.25 shifted to δ 4.6 and CH2—CH2—NMe2 δ 2.6 shifted to δ 3.5). […] This is attributed to the change in the chemical environment of the CH2 resonances as a result of the complete protonation of the neighbouring NMe2 moiety.

| SMILES | salt formation by IR spectroscopy |
| --- | --- |
| C=C(C)C(=O)NCCCN(C)C.CCCCCCCCCCCCCCCC(=O)O [Comparative Example A (monomeric salt)] | incomplete salt formation |
| C=C(C)C(=O)NCCCN(C)C.CCCCCC(=O)O [Comparative Example C] | incomplete salt formation |
